Tests used:
[1] = test system: muscarinic acetylcholine receptor; assay: oxotremorine-induced membrane potential change in PC12 cells after incubation with nutrients (receptor functionality); format: cell-based; conditions: 1 day of incubation, then 50 μM oxotremorine, percentage change compared to control conditions
Experimental: After 1 day of incubation the medium+additions were replaced by control medium and the cells were stimulated with 50 μM oxotremorine, an agonist at the muscarinic acetylcholine receptor, involved in learning and memory. Oxotremorine induces a depolarization of the membrane which can be measured as a change in membrane potential. At a fixed dose of the agonist, increases in membrane potential are thought to reflect improvements in receptor functioning.

APP/PS1 mice [2] = assay: abeta plaque burden in hippocampus of APP/PS1 mice fed enriched diets; format: in vivo; conditions: diet fed 3 months from 3 to 6 months of age, compared to control diet
From the text: (§1) These mice start showing plaques in their brains as early as 4-5 months of age and are considered a good model for AD in scientific literature.
(§2) The diets were fed for a period of 3 months until the age of 6 months. Thereafter the mice were sacrificed and their brains processed for abeta plaque analyses and neurodegeneration analyses. The brain was cut into thin slices using a vibratome and the slices were stained for abeta using an antibody recognizing human abeta and for neurodegeneration using the amino-cupric staining The total number of plaques in the hippocampus was counted and the total surface of the area covered by plaques (plaque burden) was determined. Total surface area covered with neuritic plaques (staining positive for amino-cupric) was determined to measure the level of neurodegeneration.

APP/PS1 mice [3] = assay: neurodegeneration (amino-cupric staining of neuritic plaques) in APP/PS1 mice fed enriched diets; format: in vivo; conditions: diet fed 3 months from 3 to 6 months of age, compared to control diet
From the text: as §1, §2

[4] = per 1.0 mg of the tocopherol equivalent; cited from earlier work
PC12 cells = assay: survival of PC12 cells during incubation with nutrients; format: cell-based; conditions: control medium plus nutrient

Row | Compound | IU vitamin E [4] [IU] | x mg α-TE [4] [mg α-TE] | other results
1 | O=c1ccn([C@@H]2O[C@H](COP(=O)(O)O)[C@@H](O)[C@H]2O)c(=O)[nH]1 [UMP, uridine monophosphate] |  |  | membrane potential change [1]: did not affect membrane potential change; plaque burden in the hippocampus (APP/PS1 mice [2]): not affected; level of neurodegeneration (APP/PS1 mice [3]): did not differ from the control
2 | Cc1c(C)c2c(c(C)c1O)CCC(C)(CCCC(C)CCCC(C)CCCC(C)C)O2 (racemic) [all rac-α-tocopherol] | 1.10 | 0.74 | 
3 | Cc1c(C)c2c(c(C)c1O)CC[C@@](C)(CCC[C@H](C)CCC[C@H](C)CCCC(C)C)O2 [RRR-α-tocopherol] | 1.49 | 1.0 | 
4 | CC(=O)Oc1c(C)c(C)c2c(c1C)CCC(C)(CCCC(C)CCCC(C)CCCC(C)C)O2 (racemic) [all rac-α-tocopheryl acetate] | 1.00 | 0.67 | 
5 | Cc1c(C)c2c(c(C)c1OC(=O)CCC(=O)O)CC[C@@](C)(CCC[C@H](C)CCC[C@H](C)CCCC(C)C)O2 [RRR-α-tocopheryl succinate] | 1.21 | 0.81 | 
6 | CC(=O)Oc1c(C)c(C)c2c(c1C)CC[C@@](C)(CCC[C@H](C)CCC[C@H](C)CCCC(C)C)O2 [RRR-α-tocopheryl acetate] | 1.36 | 0.91 | 
7 | CC/C=C\C/C=C\C/C=C\C/C=C\C/C=C\C/C=C\CCC(=O)O [DHA, docosahexaenoic acid] |  |  | cell death on incubation (PC12 cells): led to cell death
8 | Cc1cc(O)c(C)c2c1O[C@](C)(CCC[C@H](C)CCC[C@H](C)CCCC(C)C)CC2 [RRR-β-tocopherol] | 0.75 | 0.50 | 
9 | CC(C)=CCC/C(C)=C/CC/C(C)=C/CC[C@]1(C)CCc2c(C)c(O)cc(C)c2O1 [RRR-β-tocotrienol] | 0.08 | 0.05 | 
10 | Cc1c(C)c2c(c(C)c1OC(=O)CCC(=O)O)CCC(C)(CCCC(C)CCCC(C)CCCC(C)C)O2 (racemic) [all rac-α-tocopheryl succinate] | 0.89 | 0.60 | 
11 | Cc1cc(O)cc2c1O[C@](C)(CCC[C@H](C)CCC[C@H](C)CCCC(C)C)CC2 [RRR-δ-tocopherol] | 0.05 | 0.03 | 
12 | Cc1c(O)cc2c(c1C)O[C@](C)(CCC[C@H](C)CCC[C@H](C)CCCC(C)C)CC2 [RRR-γ-tocopherol] | 0.15 | 0.10 | 
13 | CC(C)=CCC/C(C)=C/CC/C(C)=C/CC[C@]1(C)CCc2c(C)c(O)c(C)c(C)c2O1 [RRR-α-tocotrienol] | 0.75 | 0.50 | 
